# In PubChem BioAssay AID206 (DTP/NCI, 2004):
# Where “and” joins values, the source holds several entries; their conditions need not be identical. Identical values can stand only once. Records with an inconclusive call do not appear.
# Tested on: nude mice, HT29 intrarenal xenograft, tumor weight T/C
# Assay: NCI In Vivo Anticancer Drug Screen. Data for tumor model HT29;CX-1 Human Adenocarcinoma (MER+) (intrarenal inoculation) in NU/NU Swiss (nude) mice
# Conditions: endpoint: mean tumor weight change, higher = larger tumour
# Method in brief: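 Tumor-bearing mice received test compound or vehicle, and tumor size or survival was recorded. Values are the treated-group measurement divided by the vehicle-treated control measurement.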
# [1] = dose: 75.0 mg/kg/injection, schedule: Q04DX004 (sc), vehicle: saline with Tween-80
# [2] = dose: 100.0 mg/kg/injection, schedule: Q04DX004 (sc), vehicle: saline
# [3] = dose: 12.5 mg/kg/injection, schedule: Q01DX010 (sc), vehicle: water
# [4] = dose: 300.0 mg/kg/injection, schedule: Q04DX004 (sc), vehicle: saline with Tween-80
# [5] = dose: 600.0 mg/kg/injection, schedule: Q04DX004 (sc), vehicle: saline with Tween-80
# [6] = dose: 1200.0 mg/kg/injection, schedule: Q04DX004 (sc), vehicle: saline with Tween-80
compound,measurement,setting,value
CCCCCCCCCCS(=O)CC(CO)NC(=O)/C=C/c1c(C)[nH]c(=O)[nH]c1=O (stereo unspecified),T/C,"dose: 9.38 mg/kg/injection, schedule: Q04DX004 (sc), vehicle: distilled water + Tween-80",90 % of control
same,T/C,"dose: 18.75 mg/kg/injection, schedule: Q04DX004 (sc), vehicle: distilled water + Tween-80",100 % of control
same,T/C,"dose: 37.5 mg/kg/injection, schedule: Q04DX004 (sc), vehicle: distilled water + Tween-80",80 % of control
Nc1ncnc2c(C3OC(CO)C(O)C3O)[nH]nc12 (stereo unspecified),T/C,"dose: 75.0 mg/kg/injection, schedule: Q04DX004 (sc), vehicle: suspension in saline",39 % of control
CCC1=C[C@H]2CN(CCc3c([nH]c4ccccc34)[C@@](C(=O)OC)(c3cc4c(cc3OC)N(C)[C@H]3[C@@](O)(C(=O)NC)[C@H](OC(C)=O)[C@]5(CC)C=CCN6CC[C@]43[C@@H]65)C2)C1,T/C,"dose: 1.0 mg/kg/injection, schedule: Q04DX004 (sc), vehicle: water",106 % of control
same,T/C,"dose: 2.0 mg/kg/injection, schedule: Q04DX004 (sc), vehicle: water",28 % of control
same,T/C,"dose: 4.0 mg/kg/injection, schedule: Q04DX004 (sc), vehicle: water",-20 % of control
Nc1nc2c(C(=O)N3CCCC3)nnn2c2ccccc12,T/C,[1],157 % of control
O=C(/C=C(\Cl)C(=O)NO)NO,T/C,"dose: 50.0 mg/kg/injection, schedule: Q04DX004 (sc), vehicle: saline",102 % of control
same,T/C,[2],172 % of control
same,T/C,"dose: 200.0 mg/kg/injection, schedule: Q04DX004 (sc), vehicle: saline",86 % of control
OC(C1CO1)C(O)C1CO1 (stereo unspecified),T/C,"dose: 0.5 mg/kg/injection, schedule: Q01DX010 (sc), vehicle: saline",113 % of control
same,T/C,"dose: 1.0 mg/kg/injection, schedule: Q01DX010 (sc), vehicle: saline",52 % of control
Cc1cc(NCCCN(C)C)c2ccc3c(ccc4c(NCCCN(C)C)cc(C)nc43)c2n1,T/C,"dose: 9.38 mg/kg/injection, schedule: Q04DX004 (sc), vehicle: saline with Tween-80",53 % of control
CN(C)C(=O)c1cccc(COc2ccc(N3C(N)=NC(N)=NC3(C)C)cc2Cl)c1,T/C,[3],82 % of control
CCOC(=O)NC1=C(N2CC2)C(=O)C(NC(=O)OCC)=C(N2CC2)C1=O,T/C,"dose: 3.13 mg/kg/injection, schedule: Q04DX004 (sc), vehicle: suspension in saline",55 % of control
CC(/C=N/N=C(N)N)=N\N=C(N)N,T/C,[3],67 % of control
COc1ccc2c(NCCCCCCNc3c4ccccc4nc4cc(OC)ccc34)c3ccccc3nc2c1,T/C,"dose: 0.62 mg/kg/injection, schedule: Q01DX010 (sc), vehicle: lactic acid",87 % of control
same,T/C,"dose: 1.25 mg/kg/injection, schedule: Q01DX010 (sc), vehicle: lactic acid",73 % of control
same,T/C,"dose: 2.5 mg/kg/injection, schedule: Q01DX010 (sc), vehicle: lactic acid",71 % of control
same,T/C,"dose: 30.0 mg/kg/injection, schedule: Q01DX010 (sc), vehicle: lactic acid",71 % of control
OC1CCCC2CCC[N-]C12.OC1CCCC2CCC[N-]C12.[Mn+2] (stereo unspecified),T/C,"dose: 150.0 mg/kg/injection, schedule: Q04DX004 (sc), vehicle: Klucel (hydroxypropylcellulose) (HPC)",114 % of control
same,T/C,"dose: 600.0 mg/kg/injection, schedule: Q04DX004 (sc), vehicle: Klucel (hydroxypropylcellulose) (HPC)",124 % of control
C/C(=N/NC(N)=S)c1ccc2ccccc2c1,T/C,"dose: 12.5 mg/kg/injection, schedule: Q01DX010 (sc), vehicle: saline with Tween-80",177 % of control
same,T/C,"dose: 25.0 mg/kg/injection, schedule: Q01DX010 (sc), vehicle: saline with Tween-80",70 % of control
same,T/C,"dose: 50.0 mg/kg/injection, schedule: Q01DX010 (sc), vehicle: saline with Tween-80",57 % of control
same,T/C,"dose: 100.0 mg/kg/injection, schedule: Q01DX010 (sc), vehicle: saline with Tween-80",89 % of control
CC1(C)COCN1COC1CCCCC1,T/C,[2],34 % of control
CCC(=O)Sc1ccccc1C(=O)Nc1ccc(Cl)cc1,T/C,[4],122 % of control
same,T/C,[5],93 % of control
same,T/C,[6],103 % of control
same,T/C,"dose: 2400.0 mg/kg/injection, schedule: Q04DX004 (sc), vehicle: saline with Tween-80",91 % of control
CC[C@](O)(C(=O)O)c1cc2n(c(=O)c1CO)Cc1cc3ccccc3nc1-2,T/C,"dose: 31.25 mg/kg/injection, schedule: Q04DX004 (sc), vehicle: saline",7 % of control
same,T/C,"dose: 62.5 mg/kg/injection, schedule: Q04DX004 (sc), vehicle: saline",-10 % of control
same,T/C,"dose: 125.0 mg/kg/injection, schedule: Q04DX004 (sc), vehicle: saline",-46 % of control
Cc1c(N)nc(C(CC(N)=O)NCC(N)C(N)=O)nc1C(=O)NC(C(=O)NC(C)C(O)C(C)C(=O)NC(C(=O)NCCc1nc(-c2nc(C(=O)NCCCNCCCc3ccccn3)cs2)cs1)C(C)O)C(OC1OC(CO)C(O)C(O)C1OC1OC(CO)C(O)C(OC(N)=O)C1O)c1cnc[nH]1 (stereo unspecified),T/C,"dose: 9.0 mg/kg/injection, schedule: Q04DX004 (sc), vehicle: water",164 % of control
same,T/C,"dose: 18.0 mg/kg/injection, schedule: Q04DX004 (sc), vehicle: water",120 % of control
same,T/C,"dose: 36.0 mg/kg/injection, schedule: Q04DX004 (sc), vehicle: water",90 % of control
CCc1c(CC(=O)O)c2cc(C)ccc2n1Cc1ccc(Cl)cc1,T/C,"dose: 100.0 mg/kg/injection, schedule: Q04DX004 (sc), vehicle: Klucel (hydroxypropylcellulose) (HPC)",77 % of control
same,T/C,"dose: 200.0 mg/kg/injection, schedule: Q04DX004 (sc), vehicle: Klucel (hydroxypropylcellulose) (HPC)",74 % of control
same,T/C,"dose: 400.0 mg/kg/injection, schedule: Q04DX004 (sc), vehicle: Klucel (hydroxypropylcellulose) (HPC)",86 % of control
same,T/C,"dose: 800.0 mg/kg/injection, schedule: Q04DX004 (sc), vehicle: Klucel (hydroxypropylcellulose) (HPC)",97 % of control
CO[C@@]12[C@H](COC(N)=O)C3=C(C(=O)C(C)=C(N)C3=O)N1C[C@@H]1N[C@@H]12,T/C,"dose: 0.63 mg/kg/injection, schedule: Q04DX004 (sc), vehicle: saline",71 % of control
same,T/C,"dose: 1.5 mg/kg/injection, schedule: Q04DX004 (sc), vehicle: saline",10 % of control
same,T/C,"dose: 2.0 mg/kg/injection, schedule: Q04DX004 (ip), vehicle: saline",29 % of control
same,T/C,"dose: 3.0 mg/kg/injection, schedule: Q04DX003 (sc), vehicle: saline",13 % of control
same,T/C,"dose: 3.0 mg/kg/injection, schedule: Q04DX004 (ip), vehicle: saline",8 % of control
same,T/C,"dose: 3.0 mg/kg/injection, schedule: Q04DX004 (sc), vehicle: saline",-59 % of control
same,T/C,"dose: 4.5 mg/kg/injection, schedule: Q04DX004 (ip), vehicle: saline",-82 % of control
same,T/C,"dose: 6.0 mg/kg/injection, schedule: Q04DX003 (sc), vehicle: saline",-37 % of control
OCCN1CCN(CCCN2c3ccccc3Sc3ccc(C(F)(F)F)cc32)CC1,T/C,"dose: 1.25 mg/kg/injection, schedule: Q01DX010 (sc), vehicle: saline",121 % of control
same,T/C,"dose: 2.5 mg/kg/injection, schedule: Q01DX010 (sc), vehicle: saline",58 % of control
same,T/C,"dose: 5.0 mg/kg/injection, schedule: Q01DX010 (sc), vehicle: saline",118 % of control
same,T/C,"dose: 10.0 mg/kg/injection, schedule: Q01DX010 (sc), vehicle: saline",92 % of control
[N-]=[N+]=CC(=O)CCC(N)C(=O)O (stereo unspecified),T/C,"dose: 0.1 mg/kg/injection, schedule: Q01DX010 (sc), vehicle: saline",73 % of control
same,T/C,"dose: 0.2 mg/kg/injection, schedule: Q01DX010 (sc), vehicle: saline",43 % of control
O=C1C(O)=C(c2ccccc2)C(=O)C(O)=C1c1ccccc1,T/C,"dose: 75.0 mg/kg/injection, schedule: Q04DX004 (sc), vehicle: saline",95 % of control
same,T/C,"dose: 150.0 mg/kg/injection, schedule: Q04DX004 (sc), vehicle: saline",60 % of control
O=S1(=O)C=C(c2ccccc2)C(c2ccccc2)=C1,T/C,"dose: 150.0 mg/kg/injection, schedule: Q04DX004 (sc), vehicle: saline with Tween-80",58 % of control
same,T/C,[4],83 % of control
same,T/C,[5],97 % of control
same,T/C,[6],85 % of control
C[Si](C)(C)n1nnn(-c2ccccc2)c1=O,T/C,"dose: 37.5 mg/kg/injection, schedule: Q04DX004 (sc), vehicle: saline with Tween-80",116 % of control
same,T/C,[1],120 % of control
same,T/C,[4],116 % of control
O=C(O)CC(=O)O.[NH-]C1CCCCC1[NH-].[Pt+2] (stereo unspecified),T/C,"dose: 10.0 mg/kg/injection, schedule: Q01DX010 (sc), vehicle: dextrose",264 % of control
same,T/C,"dose: 15.0 mg/kg/injection, schedule: Q01DX010 (sc), vehicle: dextrose",73 % of control
same,T/C,"dose: 30.0 mg/kg/injection, schedule: Q01DX010 (sc), vehicle: dextrose",32 % of control and 43 % of control
same,T/C,"dose: 40.0 mg/kg/injection, schedule: Q01DX010 (sc), vehicle: dextrose",21 % of control
same,T/C,"dose: 60.0 mg/kg/injection, schedule: Q01DX010 (sc), vehicle: dextrose",34 % of control and 44 % of control
same,T/C,"dose: 120.0 mg/kg/injection, schedule: Q01DX010 (sc), vehicle: dextrose",51 % of control
